The source of these data is patent publication US10227357B2, “Compounds and methods for kinase modulation, and indications therefor” (Plexxikon Inc., priority 2012, dated 2019).

As a reminder, the IC50 is the concentration that gives 50% inhibition.

This assay deals with T1, c-kit kinase (Homo sapiens, UniProt P10721).
T1 construct: The c-kit (or kinase domain thereof) is an active kinase in AlphaScreen; poly-Histidine tag (in-house protein only) (cleaved yes); host or cells: E. coli BL21(DE3)RIL, co-expressed with PTP1B
The experiment in a line: c-Kit biochemical assay, AlphaScreen, 10 μM ATP. The settings on record: c-kit biochemical inhibitory activity; read-out: Biochemical activity (IC50 μM) Kit. The procedure: IC50 values are determined with respect to inhibition of c-Kit kinase activity, where inhibition of phosphorylation of a peptide substrate is measured as a function of compound concentration. Compounds to be tested were dissolved in DMSO to a concentration of 20 mM. These were diluted 30 μl into 120 μl of DMSO (4 mM) and 1 μl was added to an assay plate. These were then serially diluted 1:3 (50 μl to 100 μl DMSO) for a total of 8 points. Plates were prepared such that each kinase reaction is 20 μl in 1× kinase buffer (50 mM HEPES, pH 7.2, 5 mM MgCl2, 5 mM MnCl2, 0.01% NP-40, 0.2% BSA), 5% DMSO and 10 μM ATP. […] C-kit kinase was at 0.1 ng per sample. After incubation of the kinase reaction for 1 hour at room temperature, 5 μl of donor beads (Streptavidin coated beads (Perkin Elmer Life Science) final concentration 1 μg/ml) in stop buffer (50 mM EDTA in 1× kinase buffer) was added, the sample was mixed and incubated for 20 minutes at room temperature before adding 5 μl of acceptor beads (PY20 coated beads (Perkin Elmer Life Science) final concentration 1 μg/ml) in stop buffer. The samples were incubated for 60 minutes at room temperature and the signal per well was read on AlphaQuest reader. […] The signal vs. compound concentration was used to determine the IC50.
Complementary DNA cloned from various human tissues were purchased from Invitrogen, and these were used as substrates in the PCR reactions. Specific custom synthetic oligonucleotide primers were designed to initiate the PCR product, and also to provide the appropriate restriction enzyme cleavage sites for ligation with the plasmids. The entire sequence encoding the enzyme was made through a gene synthesis procedure, using custom synthetic oligonucleotides covering the entire coding sequence (Invitrogen, see below).
The plasmid used for ligation with the kinase-encoding inserts was derivative of pET (Novagen) for expression using E. coli. The Kit kinase was engineered to include a Histidine tag for purification using metal affinity chromatography. The kinase-encoding plasmid was engineered as bicistronic mRNA to co-express a second protein that modifies the kinase protein during its expression in the host cell. Protein tyrosine phosphatase 1B (PTP), was co-expressed for dephosphorylation of the phospho-Tyrosines.
For protein expression, the plasmid containing the Kit gene was transformed into E. coli strains BL21(DE3)RIL and transformants selected for growth on LB agar plates containing appropriate antibiotics. Single colonies were grown overnight at 37° C. in 200 ml TB (Terrific broth) media. 16×1 L of fresh TB media in 2.8 L flasks were inoculated with 10 ml of overnight culture and grown with constant shaking at 37° C. Once cultures reached an absorbance of 1.0 at 600 nm, IPTG was added and cultures were allowed to grow for a further 12 to 18 hrs at temperatures ranging from 12-30° C. Cells were harvested by centrifugation and pellets frozen at […] until ready for lysis.
For protein Purification; frozen E. coli cell pellets were resuspended in lysis buffer and lysed using standard mechanical methods. Protein was purified via poly-Histidine tags using immobilized metal affinity purification IMAC. The Kit kinase was purified using a 3 step purification process utilizing; IMAC, size exclusion chromatography and ion exchange chromatography. The poly-Histidine tag was removed using Thrombin (Calbiochem).

T1 sequence (P10721 26-976): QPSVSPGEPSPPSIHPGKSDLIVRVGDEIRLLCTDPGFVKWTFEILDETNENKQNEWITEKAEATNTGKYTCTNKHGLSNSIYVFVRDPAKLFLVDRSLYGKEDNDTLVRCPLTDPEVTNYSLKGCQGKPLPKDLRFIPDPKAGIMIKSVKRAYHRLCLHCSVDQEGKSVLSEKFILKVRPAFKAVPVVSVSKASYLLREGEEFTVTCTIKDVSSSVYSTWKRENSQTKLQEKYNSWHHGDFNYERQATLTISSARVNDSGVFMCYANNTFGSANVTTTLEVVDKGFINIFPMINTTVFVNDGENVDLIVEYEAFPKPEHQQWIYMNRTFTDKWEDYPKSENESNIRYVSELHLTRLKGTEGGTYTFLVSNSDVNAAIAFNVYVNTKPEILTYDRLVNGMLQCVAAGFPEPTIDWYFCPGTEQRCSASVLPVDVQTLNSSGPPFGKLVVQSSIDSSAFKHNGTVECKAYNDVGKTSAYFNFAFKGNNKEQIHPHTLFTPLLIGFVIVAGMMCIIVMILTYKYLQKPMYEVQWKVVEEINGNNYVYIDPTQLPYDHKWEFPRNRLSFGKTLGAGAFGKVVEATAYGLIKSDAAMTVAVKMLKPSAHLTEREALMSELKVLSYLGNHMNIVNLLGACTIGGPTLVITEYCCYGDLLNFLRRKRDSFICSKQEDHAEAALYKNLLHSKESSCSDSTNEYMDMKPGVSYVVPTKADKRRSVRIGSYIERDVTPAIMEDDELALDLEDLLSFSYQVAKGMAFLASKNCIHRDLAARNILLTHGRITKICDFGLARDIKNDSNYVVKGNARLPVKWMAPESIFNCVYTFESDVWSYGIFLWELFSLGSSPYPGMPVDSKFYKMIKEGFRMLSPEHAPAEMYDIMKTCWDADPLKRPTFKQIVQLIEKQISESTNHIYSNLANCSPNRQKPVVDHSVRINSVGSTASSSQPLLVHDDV

As for `COc1cc2ncnc(-c3ccc(S(N)(=O)=O)cc3)c2cc1OC` [P-0278, 4-(6,7-dimethoxyquinazolin-4-yl)benzenesulfonamide], the IC50 was in the range of 10 to 200 µM. As to `COc1cc2ncnc(-c3cccc(NS(=O)(=O)C4CC4)c3)c2cc1OC` [P-0279, N-[3-(6,7-dimethoxyquinazolin-4-yl)phenyl]cyclopropanesulfonamide], the IC50 was in the range of 10 to 200 µM. For the compound `COc1cc2ncnc(-c3ccc(NS(=O)(=O)C4CC4)cc3)c2cc1OC` [P-0280, N-[4-(6,7-dimethoxyquinazolin-4-yl)phenyl]cyclopropanesulfonamide], the IC50 fell in the range of 10 to 200 µM. In the case of `O=S(=O)(Nc1ccc(-c2ncnc3[nH]c(C(F)F)cc23)c(F)c1)c1ccc(Cl)cc1` [P-0310, 4-chloro-N-[4-[6-(difluoromethyl)-7H-pyrrolo[2,3-d]pyrimidin-4-yl]-3-fluoro-phenyl]benzenesulfonamide], the IC50 is 1 to 10 µM.

As to `Cc1cc2c(-c3ccc(NS(=O)(=O)c4ccccc4F)c(F)c3)ncnc2[nH]1` [P-0348, 2-fluoro-N-[2-fluoro-4-(6-methyl-7H-pyrrolo[2,3-d]pyrimidin-4-yl)phenyl]benzenesulfonamide], the IC50 lay within 0.0001 to 1 µM. On to `CS(=O)(=O)Nc1cc(F)c(-c2ncnc3[nH]c(-c4ccc(F)cc4)cc23)cc1F` [P-0356, N-[2,5-difluoro-4-[6-(4-fluorophenyl)-7H-pyrrolo[2,3-d]pyrimidin-4-yl]phenyl]methanesulfonamide], for which the IC50 was 0.0001 to 1 µM. On to `Fc1ccc(-c2cc3c(-c4cccnc4C(F)(F)F)ncnc3[nH]2)cc1` [P-0374, 6-(4-fluorophenyl)-4-[2-(trifluoromethyl)-3-pyridyl]-7H-pyrrolo[2,3-d]pyrimidine], for which the IC50 was in the range of 10 to 200 µM.

As for `Cc1cc2c(-c3ccc(NS(=O)(=O)C4CC4)cc3)ncnc2[nH]1` [P-0377, N-[4-(6-methyl-7H-pyrrolo[2,3-d]pyrimidin-4-yl)phenyl]cyclopropanesulfonamide], the IC50 fell in the range of 10 to 200 µM.

Take `CS(=O)(=O)c1ccc(-c2ncnc3[nH]c(-c4ccc(F)cc4)cc23)cc1` [P-0391, 6-(4-fluorophenyl)-4-(4-methylsulfonylphenyl)-7H-pyrrolo[2,3-d]pyrimidine]: the IC50 fell in the range of 1 to 10 µM.

Regarding `Fc1ccc(-c2cc3c(-c4ccncc4)ncnc3[nH]2)cc1` [P-0392, 6-(4-fluorophenyl)-4-(4-pyridyl)-7H-pyrrolo[2,3-d]pyrimidine], the IC50 is 0.0001 to 1 µM. Next, `Fc1ccc(-c2cc3c(-c4ccc(F)cc4)ncnc3[nH]2)cc1` [P-0395, 4,6-bis(4-fluorophenyl)-7H-pyrrolo[2,3-d]pyrimidine]: 0.0001 to 1 µM; `CCCCNS(=O)(=O)c1ccc(-c2ncnc3[nH]c(-c4ccc(F)cc4)cc23)cc1` [P-0421, N-butyl-4-[6-(4-fluorophenyl)-7H-pyrrolo[2,3-d]pyrimidin-4-yl]benzenesulfonamide]: 10 to 200 µM.

As for `Cc1ccc(-c2cc3c(N4CCC(NS(=O)(=O)c5ccc(OC(F)(F)F)cc5)CC4)ncnc3[nH]2)cn1` [P-0459, N-[1-[6-(6-methyl-3-pyridyl)-7H-pyrrolo[2,3-d]pyrimidin-4-yl]-4-piperidyl]-4-(trifluoromethoxy)benzenesulfonamide], the IC50 lay within 10 to 200 µM. In the case of `N#Cc1ccc(-c2cc3c(N4CCC(NS(=O)(=O)c5ccc(OC(F)(F)F)cc5)CC4)ncnc3[nH]2)cc1` [P-0464, N-[1-[6-(4-cyanophenyl)-7H-pyrrolo[2,3-d]pyrimidin-4-yl]-4-piperidyl]-4-(trifluoromethoxy)benzenesulfonamide], the IC50 is 10 to 200 µM. On to `CS(=O)(=O)NC1CCN(c2ncnc3[nH]c(C#CC4CC4)cc23)CC1` [P-0472, N-[1-[6-(2-cyclopropylethynyl)-7H-pyrrolo[2,3-d]pyrimidin-4-yl]-4-piperidyl]methanesulfonamide], for which the IC50 is 10 to 200 µM. Next, `O=C1CCCN1c1ccc(S(=O)(=O)NC2CCN(c3ncnc4[nH]c(-c5ccc(Cl)cc5)cc34)CC2)cc1` [P-0473, N-[1-[6-(4-chlorophenyl)-7H-pyrrolo[2,3-d]pyrimidin-4-yl]-4-piperidyl]-4-(2-oxopyrrolidin-1-yl)benzenesulfonamide]: 10 to 200 µM; `CN(C)c1ccc(NC(=O)NC2CCN(c3ncnc4[nH]ccc34)CC2)cc1` [P-0506, 1-(4-dimethylaminophenyl)-3-[1-(7H-pyrrolo[2,3-d]pyrimidin-4-yl)-4-piperidyl]urea]: 10 to 200 µM; `O=C(Nc1ccc(Cl)cc1)NC1CCN(c2ncnc3[nH]ccc23)CC1` [P-0519, 1-(4-chlorophenyl)-3-[1-(7H-pyrrolo[2,3-d]pyrimidin-4-yl)-4-piperidyl]urea]: 10 to 200 µM.

For `O=C(NC(=O)c1ccccc1)NC1CCN(c2ncnc3[nH]ccc23)CC1` [P-0522, N-[[1-(7H-pyrrolo[2,3-d]pyrimidin-4-yl)-4-piperidyl]carbamoyl]benzamide], the IC50 is 10 to 200 µM. Then `O=C(NC1CCCC1)NC1CCN(c2ncnc3[nH]ccc23)CC1` [P-0526, 1-cyclopentyl-3-[1-(7H-pyrrolo[2,3-d]pyrimidin-4-yl)-4-piperidyl]urea], with 10 to 200 µM.

In the case of `CCCC(=O)NC1CCN(c2ncnc3[nH]ccc23)CC1` [P-0527, N-[1-(7H-pyrrolo[2,3-d]pyrimidin-4-yl)-4-piperidyl]butanamide], the IC50 lay within 10 to 200 µM. As for `O=C(NC1CCN(c2ncnc3[nH]ccc23)CC1)C1CCCCC1` [P-0528, N-[1-(7H-pyrrolo[2,3-d]pyrimidin-4-yl)-4-piperidyl]cyclohexanecarboxamide], the IC50 was 10 to 200 µM. Then `O=C(NC1CCN(c2ncnc3[nH]ccc23)CC1)C1CCCC1` [P-0529, N-[1-(7H-pyrrolo[2,3-d]pyrimidin-4-yl)-4-piperidyl]cyclopentanecarboxamide], with 10 to 200 µM; and `CCc1ccc(C(=O)NC2CCN(c3ncnc4[nH]ccc34)CC2)cc1` [P-0530, 4-ethyl-N-[1-(7H-pyrrolo[2,3-d]pyrimidin-4-yl)-4-piperidyl]benzamide], with 10 to 200 µM; and `O=C(NC1CCN(c2ncnc3[nH]ccc23)CC1)c1ccccc1` [P-0531, N-[1-(7H-pyrrolo[2,3-d]pyrimidin-4-yl)-4-piperidyl]benzamide], with 10 to 200 µM. Then `CCCS(=O)(=O)NC1CCN(c2ncnc3[nH]ccc23)CC1` [P-0532, N-[1-(7H-pyrrolo[2,3-d]pyrimidin-4-yl)-4-piperidyl]propane-1-sulfonamide], with 10 to 200 µM; and `O=S(=O)(NC1CCN(c2ncnc3[nH]ccc23)CC1)c1ccccc1` [P-0533, N-[1-(7H-pyrrolo[2,3-d]pyrimidin-4-yl)-4-piperidyl]benzenesulfonamide], with 10 to 200 µM. Then `CCOc1ccc(NC(=O)NC2CCN(c3ncnc4[nH]ccc34)CC2)cc1` [P-0534, 1-(4-ethoxyphenyl)-3-[1-(7H-pyrrolo[2,3-d]pyrimidin-4-yl)-4-piperidyl]urea], with 10 to 200 µM; and `CCc1ccc(NC(=O)NC2CCN(c3ncnc4[nH]ccc34)CC2)cc1` [P-0535, 1-(4-ethylphenyl)-3-[1-(7H-pyrrolo[2,3-d]pyrimidin-4-yl)-4-piperidyl]urea], with 1 to 10 µM; and `CCCNC(=O)NC1CCN(c2ncnc3[nH]ccc23)CC1` [P-0536, 1-propyl-3-[1-(7H-pyrrolo[2,3-d]pyrimidin-4-yl)-4-piperidyl]urea], with 10 to 200 µM.
